In PubChem BioAssay AID2060905 (Molecular Pharmacology Branch, DTP, NCI, 2025):

Tested on: 282377-053-R-J1-PDC complex spheroid viability
Assay: Anticancer human tumor 282377-053-R-J1-PDC patient-derived colon adenocarcinoma cell line growth inhibition [RAS]
Settings: for viability, T/C: stronger effect = lower value
How it was run: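 Agents were tested in combination matrices in half-log decrements from a top concentration at or near clinical Cmax (10 microM if undetermined). Targets were multi-cell spheroids of tumour lines plus HUVEC and MSC stromal cells.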
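Note: spheroids exposed to agents for seven days before readout.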
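Throughout, for viability, T/C: luminescence viability as percent of DMSO vehicle control wells.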

SMILES: C=CC(=O)Nc1cc(Nc2nccc(-c3cn(C)c4ccccc34)n2)c(OC)cc1N(C)CCN(C)C + CCn1c(-c2cc(N3CCN(C)CC3)cnc2C(C)OC)c2c3cc(ccc31)-c1csc(n1)CC(NC(=O)C1CC1C)C(=O)N1CCCC(N1)C(=O)OCC(C)(C)C2
- IC50 (curve of first compound, second compound 0.000949 µM): > 1000 nM
- IC50 (curve of first compound, second compound 0.003 µM): > 1000 nM
- IC50 (curve of first compound, second compound 0.00949 µM): > 1000 nM
- IC50 (curve of first compound, second compound 0.03 µM): > 1000 nM
- IC50 (curve of first compound, second compound 0.0949 µM): > 1000 nM
- IC50 (curve of first compound, second compound 0.3 µM): > 1000 nM
- viability, T/C (second compound 0.000949 µM, first compound 0.00316 µM): 96.5%
- viability, T/C (second compound 0.000949 µM, first compound 0.01 µM): 109%
- viability, T/C (second compound 0.000949 µM, first compound 0.0316 µM): 78%
- viability, T/C (second compound 0.000949 µM, first compound 0.1 µM): 86.9%
- viability, T/C (second compound 0.000949 µM, first compound 0.316 µM): 83.4%
- viability, T/C (second compound 0.000949 µM, first compound 1 µM): 91.6%
- viability, T/C (second compound 0.003 µM, first compound 0.00316 µM): 87.3%
- viability, T/C (second compound 0.003 µM, first compound 0.01 µM): 106%
- viability, T/C (second compound 0.003 µM, first compound 0.0316 µM): 89.9%
- viability, T/C (second compound 0.003 µM, first compound 0.1 µM): 80.8%
- viability, T/C (second compound 0.003 µM, first compound 0.316 µM): 83.6%
- viability, T/C (second compound 0.003 µM, first compound 1 µM): 75.8%
- viability, T/C (second compound 0.00949 µM, first compound 0.00316 µM): 102%
- viability, T/C (second compound 0.00949 µM, first compound 0.01 µM): 90.8%
- viability, T/C (second compound 0.00949 µM, first compound 0.0316 µM): 97.5%
- viability, T/C (second compound 0.00949 µM, first compound 0.1 µM): 84.8%
- viability, T/C (second compound 0.00949 µM, first compound 0.316 µM): 73.8%
- viability, T/C (second compound 0.00949 µM, first compound 1 µM): 80.3%
- viability, T/C (second compound 0.03 µM, first compound 0.00316 µM): 83%
- viability, T/C (second compound 0.03 µM, first compound 0.01 µM): 97.4%
- viability, T/C (second compound 0.03 µM, first compound 0.0316 µM): 116%
- viability, T/C (second compound 0.03 µM, first compound 0.1 µM): 89.9%
- viability, T/C (second compound 0.03 µM, first compound 0.316 µM): 85.6%
- viability, T/C (second compound 0.03 µM, first compound 1 µM): 94.4%
- viability, T/C (second compound 0.0949 µM, first compound 0.00316 µM): 95%
- viability, T/C (second compound 0.0949 µM, first compound 0.01 µM): 92.5%
- viability, T/C (second compound 0.0949 µM, first compound 0.0316 µM): 97.8%
- viability, T/C (second compound 0.0949 µM, first compound 0.1 µM): 78.6%
- viability, T/C (second compound 0.0949 µM, first compound 0.316 µM): 112%
- viability, T/C (second compound 0.0949 µM, first compound 1 µM): 91.7%
- viability, T/C (second compound 0.3 µM, first compound 0.00316 µM): 84.9%
- viability, T/C (second compound 0.3 µM, first compound 0.01 µM): 97.2%
- viability, T/C (second compound 0.3 µM, first compound 0.0316 µM): 92%
- viability, T/C (second compound 0.3 µM, first compound 0.1 µM): 97.5%
- viability, T/C (second compound 0.3 µM, first compound 0.316 µM): 98.6%
- viability, T/C (second compound 0.3 µM, first compound 1 µM): 138%

SMILES: C#Cc1c(F)ccc2cc(O)cc(-c3ncc4c(N5CC6CCC(C5)N6)nc(OCC56CCCN5CC(F)C6)nc4c3F)c12 (configuration not stated)
- viability, T/C (compound 0.1 µM): 104% [middle of 8 runs]
- viability, T/C (compound 0.316 µM): 102% [middle of 8 runs]
- viability, T/C (compound 3.16 µM): 111% [middle of 8 runs]
- viability, T/C (compound 10 µM): 104% [middle of 8 runs]
- IC50 (compound alone, run of 06/10/2024): > 10000 nM
